Values of other authors as cited in patent US9889109B2, “Pharmaceutical composition comprising benzyl alcohol for the treatment of migraines” (St. Renatus, LLC, priority 2012, dated 2018).

pKa: approximately 8.4
unionized molecules (pH 7.4): 1-2%
SMILES: CCCCNc1ccc(C(=O)OCCN(C)C)cc1 [tetracaine, 2-(dimethylamino)ethyl 4-(butylamino)benzoate]
